# Data: US10428080B2, “TBK/IKK inhibitor compounds and uses thereof” (Merck Patent GmbH, priority 2015, dated 2019)
# Counter-ions that a name gives are not always drawn. Like-named read-outs stand apart in the source and are kept apart here.
# What was measured:
# [1] = system: phosphorylation of the IRF-3 protein in MDA-MB-468 cells; assay: pIRF3 immunocytochemistry cell based assay; conditions: Homo sapiens
# Method in brief: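 After 2 h stimulation with Poly(I:C) (10 ug/ml), following 1 h compound pre-treatment (10-point, 3-fold dilution, top 10 uM), MDA-MB-468 cells were fixed and stained with anti-pIRF3 antibody. pIRF3 fluorescence was normalized to PI staining or cell count on an Acumen cytometer. IC50 curves were derived from this.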
# TBK1 = target: T1, TBK1 (Homo sapiens, UniProt Q9UHD2); assay: TBK Biochemical Assay; conditions: read-out: TBK1 IC50
# T1 sequence (Q9UHD2 1-729): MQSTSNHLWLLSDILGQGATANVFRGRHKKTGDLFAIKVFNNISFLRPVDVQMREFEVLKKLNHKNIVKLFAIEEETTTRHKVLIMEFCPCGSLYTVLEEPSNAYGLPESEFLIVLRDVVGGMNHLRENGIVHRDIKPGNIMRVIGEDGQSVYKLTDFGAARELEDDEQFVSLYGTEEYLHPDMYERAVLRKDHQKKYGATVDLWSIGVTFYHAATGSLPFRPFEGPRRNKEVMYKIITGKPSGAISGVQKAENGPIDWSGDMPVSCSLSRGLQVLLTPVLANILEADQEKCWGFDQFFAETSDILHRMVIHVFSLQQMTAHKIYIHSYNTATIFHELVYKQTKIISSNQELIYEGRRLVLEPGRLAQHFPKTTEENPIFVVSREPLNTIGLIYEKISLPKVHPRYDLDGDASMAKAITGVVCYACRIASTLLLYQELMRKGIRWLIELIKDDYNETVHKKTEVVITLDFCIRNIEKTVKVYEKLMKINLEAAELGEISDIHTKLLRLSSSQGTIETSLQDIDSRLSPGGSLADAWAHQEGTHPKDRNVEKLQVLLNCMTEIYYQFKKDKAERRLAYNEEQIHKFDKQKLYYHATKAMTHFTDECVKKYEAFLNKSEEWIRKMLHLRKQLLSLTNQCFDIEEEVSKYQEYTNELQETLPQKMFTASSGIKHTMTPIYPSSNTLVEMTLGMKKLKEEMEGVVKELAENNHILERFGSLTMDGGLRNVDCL
# Method in brief: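 Caliper LabChip mobility-shift readout of substrate and product after 90 min of TBK1 reaction at 25° C and stop-buffer addition. Compounds tested in 1:4 serial dilution over 10 points from 30 uM final at 1% DMSO; staurosporine 10 uM final defines full inhibition.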
# IKKε = target: T2, IKKε (Homo sapiens, UniProt Q14164); assay: IKKe Biochemical Assay; conditions: read-out: IKKε IC50
# T2 sequence (Q14164 1-716): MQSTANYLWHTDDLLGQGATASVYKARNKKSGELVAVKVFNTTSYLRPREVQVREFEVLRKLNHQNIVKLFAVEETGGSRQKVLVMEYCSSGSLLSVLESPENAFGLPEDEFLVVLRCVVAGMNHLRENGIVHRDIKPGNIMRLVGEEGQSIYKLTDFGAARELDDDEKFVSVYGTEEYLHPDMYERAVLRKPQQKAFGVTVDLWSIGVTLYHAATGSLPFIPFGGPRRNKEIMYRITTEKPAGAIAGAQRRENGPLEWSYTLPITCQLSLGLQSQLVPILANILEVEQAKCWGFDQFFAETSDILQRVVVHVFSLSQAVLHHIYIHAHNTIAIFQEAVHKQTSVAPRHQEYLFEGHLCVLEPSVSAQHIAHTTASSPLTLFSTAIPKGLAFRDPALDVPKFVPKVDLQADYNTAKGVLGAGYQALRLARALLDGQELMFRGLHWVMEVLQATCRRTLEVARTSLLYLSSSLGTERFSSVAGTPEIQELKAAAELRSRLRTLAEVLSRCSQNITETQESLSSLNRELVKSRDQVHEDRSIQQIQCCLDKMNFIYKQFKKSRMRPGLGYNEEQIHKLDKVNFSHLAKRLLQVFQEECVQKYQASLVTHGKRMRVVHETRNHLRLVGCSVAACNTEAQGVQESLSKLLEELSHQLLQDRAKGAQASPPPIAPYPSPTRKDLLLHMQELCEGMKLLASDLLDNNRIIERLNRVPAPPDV
# Method in brief: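 Activity was measured as mobility-shift separation of phosphorylated from unphosphorylated substrate on a LabChip EZ Reader. Compound was titrated from 30 uM final in 10 points, 1:4 steps, with 1% DMSO, and enzyme plus substrate reacted 90 min at 25° C before stop buffer. Control wells held 10 uM staurosporine.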
# [2] = MDA-MB-468 cells, Poly(I:C) stimulation, read-out: pIRF3 IC50
# [3] = MDA-MB-468, read-out: pIRF3 IC50
"IC50 [1, 2] [nM]",IC50 (TBK1) [nM],IC50 (IKKε) [nM],Structure (SMILES),"IC50 [1, 3] [nM]"
< 100,< 100,< 100,"COc1cc(C(=O)N[C@@H]2[C@@H]3C[C@H]2CN(C)C3)cnc1-c1cc2nccc(-c3ccc(OC4CCOCC4)c(C#N)c3)c2o1 [Compound 398, 6-{7-[3-Cyano-4-(tetrahydro-pyran-4-yloxy)-phenyl]-furo[3,2-b]pyridin-2-yl}-5-methoxy-N-((1R,5S,6S)-3-methyl-3-aza-bicyclo[3.10.1]hept-6-yl)-nicotinamide]",–
< 100,< 100,< 100,"COc1cc(C(=O)N(C)C)n(C)c1-c1cc2nccc(-c3ccc(OC4CCOCC4)c(C#N)c3)c2o1 [Compound 402, 5-[7-[3-cyano-4-(oxan-4-yloxy)phenyl]furo[3,2-b]pyridin-2-yl]-4-methoxy-N,N,1-trimethyl-1H-pyrrole-2-carboxamide]",–
100 to 1000,< 100,< 100,"COc1cc(C(=O)N(C)C)cnc1-c1cc2nccc(-c3ccc(OC4CCNCC4(F)F)c(C#N)c3)c2o1 (stereo not drawn) [Compound 403, 6-(7-[3-cyano-4-[(3,3-difluoropiperidin-4-yl)oxy]phenyl]furo[3,2-b]pyridin-2-yl)-5-methoxy-N,N-dimethylpyridine-3-carboxamide]",–
100 to 1000,< 100,< 100,"COc1cc(C(=O)N(C)C)cnc1-c1cc2nccc(-c3ccc(OC4CCN(C)CC4(F)F)c(C#N)c3)c2o1 (stereo not drawn) [Compound 404, 6-(7-[3-cyano-4-[(3,3-difluoro-1-methylpiperidin-4-yl)oxy]phenyl]furo[3,2-b]pyridin-2-yl)-5-methoxy-N,N-dimethylpyridine-3-carboxamide]",–
100 to 1000,< 100,< 100,"COc1cc(C(=O)N2CC3C2CCN3C)cnc1-c1cc2nccc(-c3ccc(OC4CCOCC4)c(C#N)c3)c2o1 (stereo not drawn) [Compound 405, 5-[2-[3-methoxy-5-([2-methyl-2,6-diazabicyclo[3.2.0]heptan-6-yl]carbonyl)pyridin-2-yl]furo[3,2-b]pyridin-7-yl]-2-(oxan-4-yloxy)benzonitrile hydrochloride]",–
< 100,< 100,< 100,"COc1cc(C(=O)N2CC3CCC2CN3C)cnc1-c1cc2nccc(-c3ccc(OC4CCOCC4)c(C#N)c3)c2o1 (stereo not drawn) [Compound 406, 5-[2-[3-methoxy-5-(([5-methyl-2,5-diazabicyclo[2.2.2]octan-2-yl]carbonyl)pyridin-2-yl]furo[3,2-b]pyridin-7-yl]-2-(oxan-4-yloxy)benzonitrile hydrochloride]",–
100 to 1000,< 100,< 100,"COc1cc(C(=O)N2CCCCN2)cnc1-c1cc2nccc(-c3ccc(OC4CCOCC4)c(C#N)c3)c2o1 [Compound 407, 5-(2-[5-[(1,2-diazinan-1-yl)carbonyl]-3-methoxypyridin-2-yl]furo[3,2-b]pyridin-7-yl)-2-(oxan-4-yloxy)benzonitrile hydrochloride]",–
100 to 1000,< 100,< 100,"COc1cc(C(=O)N2CCCCC2)cnc1-c1cc2nccc(-c3ccc(N4CC[C@@H](F)C4)c(C#N)c3)c2o1 [Compound 410, 2-[(3R)-3-fluoropyrrolidin-1-yl]-5-(2-[3-methoxy-5-[(piperidin-1-yl)carbonyl]pyridin-2-yl]furo[3,2-b]pyridin-7-yl)benzonitrile]",–
100 to 1000,< 100,< 100,"COc1cc(C(=O)N2CC3CCC(C2)O3)cnc1-c1cc2nccc(-c3ccc(OC4CCOCC4)c(C#N)c3)c2o1 [Compound 411, 5-[2-[3-methoxy-5-([8-oxa-3-azabicyclo[3.2.1]octan-3-yl]carbonyl)pyridin-2-yl]furo[3,2-b]pyridin-7-yl]-2-(oxan-4-yloxy)benzonitrile hydrochloride]",–
100 to 1000,< 100,< 100,"COc1cc(C(=O)N2CC3CCC2CO3)ncc1-c1cc2nccc(-c3ccc(OC4CCOCC4)c(C#N)c3)c2o1 (stereo not drawn) [Compound 413, 5-[2-[4-methoxy-6-([2-oxa-5-azabicyclo[2.2.2]octan-5-yl]carbonyl)pyridin-3-yl]furo[3,2-b]pyridin-7-yl]-2-(oxan-4-yloxy)benzonitrile hydrochloride]",–
< 100,< 100,< 100,"COc1cc(C(=O)N2CC3CCC2CO3)cnc1-c1cc2nccc(-c3ccc(OC4CCOCC4)c(C#N)c3)c2o1 (stereo not drawn) [Compound 414, hydrochloride]",–
100 to 1000,< 100,< 100,"COc1cc(C(=O)N2CCCC2)cnc1-c1cc2nccc(-c3ccc(OC4CCOCC4)c(C#N)c3)c2o1 [Compound 416, 5-(2-[3-methoxy-5-[(pyrrolidin-1-yl)carbonyl]pyridin-2-yl]furo[3,2-b]pyridin-7-yl)-2-(oxan-4-yloxy)benzonitrile hydrochloride]",–
100 to 1000,< 100,< 100,"COc1cc(C(=O)N(C)C)ncc1-c1cc2nccc(-c3ccc(OC4CCNCC4(F)F)c(C#N)c3)c2o1 (stereo not drawn) [Compound 418, 5-(7-[3-cyano-4-[(3,3-difluoropiperidin-4-yl)oxy]phenyl]furo[3,2-b]pyridin-2-yl)-4-methoxy-N,N-dimethylpyridine-2-carboxamide hydrochloride]",–

Structure (SMILES),"IC50 [1, 2] [nM]",IC50 (TBK1) [nM],IC50 (IKKε) [nM],"IC50 [1, 3] [nM]"
"CN(C)C(=O)c1cc(-c2cc3nccc(-c4ccc(OC5CCOCC5)c(C#N)c4)c3o2)n(C)c1 [Compound 400, 5-[7-[3-cyano-4-(oxan-4-yloxy)phenyl]furo[3,2-b]pyridin-2-yl]-N,N,1-trimethyl-1H-pyrrole-3-carboxamide]",–,< 100,< 100,100 to 1000
"COc1c(C(=O)N(C)C)nn(C)c1-c1cc2nccc(-c3ccc(OC4CCOCC4)c(C#N)c3)c2o1 [Compound 401, 5-[7-[3-cyano-4-(oxan-4-yloxy)phenyl]furo[3,2-b]pyridin-2-yl]-4-methoxy-N,N,1-trimethyl-1H-pyrazole-3-carboxamide hydrochloride]",–,< 100,< 100,100 to 1000
"COc1cc(C(=O)N2CCCCN2C)cnc1-c1cc2nccc(-c3ccc(OC4CCOCC4)c(C#N)c3)c2o1 [Compound 408, 5-(2-[3-methoxy-5-[(2-methyl-1,2-diazinan-1-yl)carbonyl]pyridin-2-yl]furo[3,2-b]pyridin-7-yl)-2-(oxan-4-yloxy)benzonitrile]",–,< 100,< 100,100 to 1000
"COc1cc(C(=O)N2C3COCC2CC(O)C3)cnc1-c1cc2nccc(-c3ccc(OC4CCOCC4)c(C#N)c3)c2o1 (stereo not drawn) [Compound 412, 5-[2-[5-([7-hydroxy-3-oxa-9-azabicyclo[3.3.1]nonan-9-yl]carbonyl)-3-methoxypyridin-2-yl]furo[3,2-b]pyridin-7-yl]-2-(oxan-4-yloxy)benzonitrile]",< 100,< 100,< 100,–
"COc1cc(C(=O)N2CCC2)cnc1-c1cc2nccc(-c3ccc(OC4CCOCC4)c(C#N)c3)c2o1 [Compound 415, 5-(2-[5-[(azetidin-1-yl)carbonyl]-3-methoxypyridin-2-yl]furo[3,2-b]pyridin-7-yl)-2-(oxan-4-yloxy)benzonitrile]",–,< 100,< 100,100 to 1000
